{"source": "patent US20160287666A1", "about": "(priority 2015, published 2016)", "key": {"human Nav1.6 [1]": {"molecular_target": "T1, human Nav1.6 (Homo sapiens, UniProt Q9UQD0)", "T1 sequence (Q9UQD0 whole entry)": "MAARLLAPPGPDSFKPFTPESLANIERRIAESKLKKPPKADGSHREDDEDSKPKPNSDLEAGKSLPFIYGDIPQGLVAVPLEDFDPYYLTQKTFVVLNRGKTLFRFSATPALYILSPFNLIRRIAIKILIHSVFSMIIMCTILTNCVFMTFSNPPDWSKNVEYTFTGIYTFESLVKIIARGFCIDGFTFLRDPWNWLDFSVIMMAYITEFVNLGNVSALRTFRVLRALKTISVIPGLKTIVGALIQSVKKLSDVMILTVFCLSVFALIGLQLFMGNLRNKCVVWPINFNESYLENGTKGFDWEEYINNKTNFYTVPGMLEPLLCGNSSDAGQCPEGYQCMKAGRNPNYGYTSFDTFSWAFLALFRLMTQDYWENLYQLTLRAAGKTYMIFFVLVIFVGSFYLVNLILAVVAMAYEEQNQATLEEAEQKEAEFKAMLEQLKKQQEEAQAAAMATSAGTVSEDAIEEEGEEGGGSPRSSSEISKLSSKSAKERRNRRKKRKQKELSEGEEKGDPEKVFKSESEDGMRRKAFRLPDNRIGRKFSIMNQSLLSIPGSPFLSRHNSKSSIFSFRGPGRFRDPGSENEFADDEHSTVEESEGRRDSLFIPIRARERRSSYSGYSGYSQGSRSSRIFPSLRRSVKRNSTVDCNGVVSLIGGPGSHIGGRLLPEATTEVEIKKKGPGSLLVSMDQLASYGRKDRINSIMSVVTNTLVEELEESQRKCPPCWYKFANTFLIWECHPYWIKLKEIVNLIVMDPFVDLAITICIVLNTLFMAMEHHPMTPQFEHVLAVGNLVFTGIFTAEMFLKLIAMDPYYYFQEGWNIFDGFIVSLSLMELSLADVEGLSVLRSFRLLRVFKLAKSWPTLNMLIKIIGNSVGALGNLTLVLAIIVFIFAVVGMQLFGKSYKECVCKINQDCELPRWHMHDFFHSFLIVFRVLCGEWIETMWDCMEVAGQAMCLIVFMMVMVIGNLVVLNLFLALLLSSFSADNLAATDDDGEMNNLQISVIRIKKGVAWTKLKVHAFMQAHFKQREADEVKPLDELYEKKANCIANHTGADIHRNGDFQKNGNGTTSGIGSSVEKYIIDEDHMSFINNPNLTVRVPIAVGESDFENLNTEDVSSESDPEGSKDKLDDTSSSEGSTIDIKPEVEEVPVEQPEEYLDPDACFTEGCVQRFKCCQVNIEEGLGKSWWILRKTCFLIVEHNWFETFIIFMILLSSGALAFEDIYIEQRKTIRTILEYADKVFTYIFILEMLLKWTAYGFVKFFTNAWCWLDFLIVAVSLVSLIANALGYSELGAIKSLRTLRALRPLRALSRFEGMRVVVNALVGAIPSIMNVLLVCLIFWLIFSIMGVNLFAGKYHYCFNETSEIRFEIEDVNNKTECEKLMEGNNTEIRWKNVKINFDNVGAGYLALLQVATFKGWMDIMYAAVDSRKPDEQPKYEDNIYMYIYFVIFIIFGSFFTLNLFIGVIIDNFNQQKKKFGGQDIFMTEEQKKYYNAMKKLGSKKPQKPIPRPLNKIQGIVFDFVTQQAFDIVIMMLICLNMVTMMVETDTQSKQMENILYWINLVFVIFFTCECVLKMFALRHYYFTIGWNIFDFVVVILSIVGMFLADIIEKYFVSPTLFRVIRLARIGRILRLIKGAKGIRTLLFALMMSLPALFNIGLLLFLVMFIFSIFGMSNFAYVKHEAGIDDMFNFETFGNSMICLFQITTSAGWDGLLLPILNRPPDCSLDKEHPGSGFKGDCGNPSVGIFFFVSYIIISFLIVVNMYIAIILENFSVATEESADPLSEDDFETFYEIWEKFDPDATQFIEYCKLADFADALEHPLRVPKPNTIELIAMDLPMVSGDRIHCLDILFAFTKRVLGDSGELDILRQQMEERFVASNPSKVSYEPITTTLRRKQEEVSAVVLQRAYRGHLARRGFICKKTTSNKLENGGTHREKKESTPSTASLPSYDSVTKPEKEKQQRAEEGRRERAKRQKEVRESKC", "type": "cell-based"}, "human Nav1.7": {"molecular_target": "human Nav1.7 (Homo sapiens, UniProt Q15858, W1161R)", "type": "cell-based"}, "human Nav1.6 [2]": {"molecular_target": "T1, human Nav1.6", "assay": "cell-based or functional assay"}, "[3]": {"system": "CFA-induced tactile allodynia", "parameters": "species or system mice", "conditions": "mouse, in vivo"}, "thermal pain": {"system": "thermal pain", "parameters": "species or system mice", "conditions": "in vivo"}, "[4]": {"system": "injury-induced pain (formalin)", "conditions": "rat, in vivo"}, "[5]": {"system": "CFA-induced thermal hyperalgesia", "parameters": "species or system mice", "conditions": "mouse, in vivo; for CFA-induced thermal hyperalgesia (thermal latency, Hargreaves test): sc"}, "acute thermal pain [6]": {"system": "acute thermal pain", "conditions": "rat, in vivo"}, "acute thermal pain [7]": {"system": "acute thermal pain", "conditions": "rat, in vivo", "remark": "listed apart in the source"}, "[8]": {"system": "carrageenan-induced thermal hyperalgesia", "parameters": "species or system mice", "conditions": "mouse, in vivo"}, "human Nav1.7 (human)": {"molecular_target": "human Nav1.7 (human) (UniProt Q15858)", "assay": "cell-based or functional assay"}}, "note": "Ends that are not written are not given here.", "data": [{"substance": "GPQCQKWMQTCDRERKCCEGFVCTLWCRKKLW-NH2 [NV1D3034-NH2]", "values": [{"measurement": "selectivity towards Nav1.7 compared to recombinant Protoxin-II", "setting": "human Nav1.6 [1]", "value": "improved selectivity"}]}, {"substance": "GPQCQKWMQTCDRERKCCEGFVCTLWCRKKLWGSAPAPAPAPAPGSCCNCSSKWCRDHSRCC [NV1D3799]", "values": [{"measurement": "hNav1.7 QP % blk", "setting": "human Nav1.7", "value": 22.2, "unit": "% @ 30 nM"}]}, {"substance": "recombinant Protoxin-II (peptide)", "values": [{"measurement": "IC50 (QPatch electrophysiology assay)", "setting": "human Nav1.6 [2]", "value": "6.2e-08", "unit": "M"}, {"measurement": "ratio of IC50 for Nav1.6 to IC50 for Nav1.7 (QPatch)", "setting": "human Nav1.6 [2]", "value": 28, "unit": "fold"}]}, {"substance": "GPQCQKWMQTCDARRKCCEGFVCRLWCKKKLW-OH (cysteine pairing not given here) [NV1D3006]", "values": [{"measurement": "hNav1.7 QP % blk", "setting": "human Nav1.7", "value": 52.3, "unit": "% @ 10 nM"}]}, {"substance": "GPQCQKWMQTCDRERKCCEGFVCTLWCRKKLW-NH-butyl [NV1D3034-NH-butyl]", "values": [{"measurement": "selectivity towards Nav1.7 compared to recombinant Protoxin-II", "setting": "human Nav1.6 [1]", "value": "improved selectivity"}]}, {"substance": "GPQCQKWMQTCDAERKCCEGFVCRLWCKKKLW-OH (cysteine pairing not given here) [NV1D2775]", "values": [{"measurement": "tactile threshold returned to the control level, time post pump implantation", "setting": "[3]", "value": "≤ 48", "unit": "h"}, {"measurement": "time at which the effect reached the maximum, tactile test", "setting": "[3]", "value": 8, "unit": "h"}, {"measurement": "analgesia in the mouse hotplate test (FIG. 8)", "setting": "thermal pain", "value": "significant analgesia"}, {"measurement": "hotplate latency", "setting": "thermal pain; mouse", "value": "reached values near cut-off"}, {"measurement": "formalin test flinches", "setting": "[4]", "value": "significant efficacy"}, {"measurement": "anti-hyperalgesic effect first seen, time post-pump implantation", "setting": "[5]", "value": 4, "unit": "h"}, {"measurement": "thermal latency returned to the control level, time post pump implantation", "setting": "[5]", "value": "≤ 48", "unit": "h"}, {"measurement": "time at which the effect reached the maximum, thermal test", "setting": "[5]", "value": 8, "unit": "h"}, {"measurement": "CFA-induced thermal hyperalgesia (thermal latency, Hargreaves test)", "setting": "[5]", "value": "reached values close to the cut-off"}, {"measurement": "tail flick test latency", "setting": "acute thermal pain [6]", "value": "significant efficacy"}, {"measurement": "hot plate test latency", "setting": "acute thermal pain [7]", "value": "significant efficacy"}, {"measurement": "analgesia (thermal withdrawal latency) in the carrageenan study", "setting": "[8]", "value": "significant analgesia"}]}, {"substance": "Ac-QCQKWMQTCDAERKCCEGFSCTLWCKKKLW-NH2 [(-GP) N-Ac-NV1D2974-NH2]", "values": [{"measurement": "selectivity towards Nav1.7 compared to recombinant Protoxin-II", "setting": "human Nav1.6 [1]", "value": "improved selectivity"}]}, {"substance": "GPYCQKWMQTCDANRKCCEGFSCRLWCKKKLW-NH2 [NV1D3586-NH2]", "values": [{"measurement": "selectivity towards Nav1.7 compared to recombinant Protoxin-II", "setting": "human Nav1.6 [1]", "value": "improved selectivity"}]}, {"substance": "GPACQKWMQTCDANRKCCEGFSCRLWCKKKLW-OH (cysteine pairing not given here) [NV1D3587]", "values": [{"measurement": "selectivity towards Nav1.7 compared to recombinant Protoxin-II", "setting": "human Nav1.6 [1]", "value": "improved selectivity"}]}, {"substance": "GPYCQKWMQTCDANRKCCEGFSCRLWCKKKLW-OH (cysteine pairing not given here) [NV1D3586]", "values": [{"measurement": "selectivity towards Nav1.7 compared to recombinant Protoxin-II", "setting": "human Nav1.6 [1]", "value": "improved selectivity"}]}, {"substance": "GPQCQKWMQTCDAERKCCEGFVCRLWCKKKLW-NH2 [NV1D2775-NH2]", "values": [{"measurement": "selectivity towards Nav1.7 compared to recombinant Protoxin-II", "setting": "human Nav1.6 [1]", "value": "improved selectivity"}]}, {"substance": "GPQCQKWMQTCDAERKCCEGFSCTLWCKKKLW-OH (cysteine pairing not given here) [NV1D2974]", "values": [{"measurement": "selectivity towards Nav1.7 compared to recombinant Protoxin-II", "setting": "human Nav1.6 [1]", "value": "improved selectivity"}]}, {"substance": "GPQCQKWMQTCDAERKCCEGFSCTLWCKKKLW-NH2 [NV1D2974-NH2]", "values": [{"measurement": "selectivity towards Nav1.7 compared to recombinant Protoxin-II", "setting": "human Nav1.6 [1]", "value": "improved selectivity"}]}, {"substance": "Ac-QCQKWMQTCDRERKCCEGFVCTLWCRKKLW-NH2 [(-GP) N-Ac-NV1D3034-NH2]", "values": [{"measurement": "selectivity towards Nav1.7 compared to recombinant Protoxin-II", "setting": "human Nav1.6 [1]", "value": "improved selectivity"}]}, {"substance": "GPACQKWMQTCDRNRKCCEGFVCTLWCRKKLW-OH (cysteine pairing not given here) [NV1D3541]", "values": [{"measurement": "selectivity towards Nav1.7 compared to recombinant Protoxin-II", "setting": "human Nav1.6 [1]", "value": "improved selectivity"}]}, {"substance": "GPQCQKWMQTCDRTRKCCEGFVCTLWCRKKLW-OH (cysteine pairing not given here) [NV1D3368]", "values": [{"measurement": "CFA-induced thermal hyperalgesia (thermal latency, Hargreaves test)", "setting": "[5]", "value": "fully reversed"}, {"measurement": "selectivity towards Nav1.7 compared to recombinant Protoxin-II", "setting": "human Nav1.6 [1]", "value": "improved selectivity"}]}, {"substance": "wild type Protoxin-II (peptide)", "values": [{"measurement": "IC50 (FLIPR assay, veratridine-induced membrane depolarization)", "setting": "human Nav1.7 (human)", "value": 4, "unit": "nM"}]}, {"substance": "GPQCQKWMQTCDRERKCCQGFVCTLWCRKKLW-OH (cysteine pairing not given here) [NV1D3388]", "values": [{"measurement": "selectivity towards Nav1.7 compared to recombinant Protoxin-II", "setting": "human Nav1.6 [1]", "value": "improved selectivity"}]}, {"substance": "GPQCQKWMQTCDRTRKCCEGFVCTLWCRKKLW-NH2 [NV1D3368-NH2]", "values": [{"measurement": "CFA-induced thermal hyperalgesia", "setting": "[5]", "value": "readily reversed"}, {"measurement": "selectivity towards Nav1.7 compared to recombinant Protoxin-II", "setting": "human Nav1.6 [1]", "value": "improved selectivity"}]}, {"substance": "GPQCQKWMQTCDRERKCCEGFVCTLWCRKKLW-OH (cysteine pairing not given here) [NV1D3034]", "values": [{"measurement": "formalin test flinches", "setting": "[4]", "value": "significant efficacy"}, {"measurement": "CFA-induced thermal hyperalgesia (thermal latency, Hargreaves test)", "setting": "[5]", "value": "completely reversed"}, {"measurement": "tail flick test latency", "setting": "acute thermal pain [6]", "value": "significant efficacy"}, {"measurement": "hot plate test latency", "setting": "acute thermal pain [7]", "value": "significant efficacy"}]}, {"substance": "GPQCQKWMQSCDRERKCCEGFVCTLWCRKKLW-OH (cysteine pairing not given here) [NV1D3359]", "values": [{"measurement": "selectivity towards Nav1.7 compared to recombinant Protoxin-II", "setting": "human Nav1.6 [1]", "value": "improved selectivity"}]}, {"substance": "GPQCQKWMQTCDRNRKCCEGFVCTLWCRKKLW-OH (cysteine pairing not given here) [NV1D3044]", "values": [{"measurement": "selectivity towards Nav1.7 compared to recombinant Protoxin-II", "setting": "human Nav1.6 [1]", "value": "improved selectivity"}]}, {"substance": "GPQCQKWMQTCDRERKCCEGFVCTLWCRKKLW-NH-methyl [NV1D3034-NH-methyl]", "values": [{"measurement": "CFA-induced thermal hyperalgesia", "setting": "[5]", "value": "readily reversed"}, {"measurement": "selectivity towards Nav1.7 compared to recombinant Protoxin-II", "setting": "human Nav1.6 [1]", "value": "improved selectivity"}]}]}
